Results on two molecules are retold here after US20070020684A1, “Structure of a glucocorticoid receptor ligand binding domain comprising an expanded binding pocket and methods employing same” (priority 2002, published 2007).

In one experiment the target is T1, PR (Homo sapiens, UniProt P06401).
T1 sequence (P06401 1-933): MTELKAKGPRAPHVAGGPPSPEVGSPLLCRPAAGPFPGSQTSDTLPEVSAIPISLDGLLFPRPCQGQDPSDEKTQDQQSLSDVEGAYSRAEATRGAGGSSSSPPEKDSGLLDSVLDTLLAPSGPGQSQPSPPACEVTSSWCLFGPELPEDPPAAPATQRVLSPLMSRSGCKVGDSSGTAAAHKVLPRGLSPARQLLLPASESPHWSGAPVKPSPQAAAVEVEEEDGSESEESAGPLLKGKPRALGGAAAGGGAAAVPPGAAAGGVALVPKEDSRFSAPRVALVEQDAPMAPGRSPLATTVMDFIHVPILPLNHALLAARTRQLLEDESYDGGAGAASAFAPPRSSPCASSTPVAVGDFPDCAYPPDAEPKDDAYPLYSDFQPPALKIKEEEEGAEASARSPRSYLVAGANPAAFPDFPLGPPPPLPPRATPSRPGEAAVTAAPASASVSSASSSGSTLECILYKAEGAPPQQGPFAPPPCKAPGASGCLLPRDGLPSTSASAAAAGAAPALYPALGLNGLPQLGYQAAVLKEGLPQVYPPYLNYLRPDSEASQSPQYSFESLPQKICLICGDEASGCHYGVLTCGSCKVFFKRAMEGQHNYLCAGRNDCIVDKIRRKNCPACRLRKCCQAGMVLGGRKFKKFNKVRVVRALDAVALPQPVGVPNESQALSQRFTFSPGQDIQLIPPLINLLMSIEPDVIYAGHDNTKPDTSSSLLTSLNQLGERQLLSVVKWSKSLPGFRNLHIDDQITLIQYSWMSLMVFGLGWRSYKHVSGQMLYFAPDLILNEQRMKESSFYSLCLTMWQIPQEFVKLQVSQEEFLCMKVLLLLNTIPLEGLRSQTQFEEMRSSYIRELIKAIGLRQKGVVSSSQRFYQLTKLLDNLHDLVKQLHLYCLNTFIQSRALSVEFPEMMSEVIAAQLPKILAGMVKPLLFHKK
To be noted: known, potent, non-steroidal agonist; cited from earlier work.

The target in experiment [1] is T2, GR LBD (521-777) F602S polypeptide (human glucocorticoid receptor alpha ligand binding domain) (human, UniProt P04150 521-777).
T2 construct: Expressed in E. coli from plasmid 6xHisGS-TGR(521-777) F602S pET24; The fusion tag was cut off with thrombin before complex formation and crystallization; Residue numbers in the text follow full-length human GR; In the crystal, two LBD monomers form a symmetric dimer; also called GRα LBD; GR LBD F602S
T2 sequence: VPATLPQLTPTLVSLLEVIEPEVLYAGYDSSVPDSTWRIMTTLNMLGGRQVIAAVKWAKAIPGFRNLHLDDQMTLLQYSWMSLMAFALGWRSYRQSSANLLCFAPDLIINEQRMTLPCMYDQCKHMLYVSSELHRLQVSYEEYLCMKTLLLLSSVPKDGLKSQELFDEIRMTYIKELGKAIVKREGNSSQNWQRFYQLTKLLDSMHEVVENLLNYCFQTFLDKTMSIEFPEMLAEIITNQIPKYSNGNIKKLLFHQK
Kind of experiment: X-ray co-crystal structure, 2.6 Å.

As to `CC1CCC(c2ccc(Cl)c(C(F)(F)F)c2)=NN1S(=O)(=O)c1ccc(I)cc1` (centres unmarked) [RWJ-60130, 3-(4-chloro-3-trifluoromethylphenyl)-1-(4iodobenzensulfonyl)-6-methyl-1,4,5,6-tetrahydropyridazine], the “binding affinity for PR (in words)” value at PR was “high-affinity”.

B1: TIF2 peptide (residues 740-753 of the human TIF2 protein), KENALLRYLLDKDD (peptide)
peptide: KENALLRYLLDKDD
Regarding B1, the binding result in experiment [1] is given as “binds”.
